{"source": "patent US8445526B2", "about": "“Compositions and methods for treatment of glaucoma” (Glaucoma & Nasal Therapies LLC, priority 2011, dated 2013)", "key": {"[1]": {"tested_on": "α-2 over α-1 adrenergic receptors", "settings": "binding affinity for α-2 over α-1 receptors; cited from earlier work"}, "[2]": {"tested_on": "normotensive (<21 mm Hg) human subject", "settings": "after instillation", "description": "Various formulations of α-2 agonists were unilaterally administered to a normotensive (<21 mm Hg) human subject. The subject first underwent baseline IOP testing using standard applanation tonometry via slit lamp. After fluorescein instillation, the drug was instilled as a morning dose at between about 7:00 and 9:00 AM. […] Follow up IOP checks were designed to be about 4 hours after initial instillation, where instillation consisted of 1-2 drops."}, "normotensive rabbits": {"tested_on": "normotensive rabbits", "settings": "cited from earlier work; for contralateral (nontreated eye) IOP reduction compared to the treated eye / time of peak effect: normotensive rabbits; for time of peak effect: dexmedetomidine 0.05%, brimonidine tartrate 0.10%"}, "[3]": {"tested_on": "ocular hypertensive and normotensive eyes of patients", "settings": "cited from earlier work; for equivalent reduction in normotensive human eyes: prior art formulations"}, "normotensive eyes": {"tested_on": "normotensive eyes", "settings": "under specific and very limited formulation conditions"}, "one eye of an individual": {"tested_on": "one eye of an individual", "test": "Example 3: cosmetic appearance (redness, whiteness) of the treated eye", "type": "in vivo, human", "settings": "for Eye White Shade: baseline 1; for Redness: baseline 1.5"}, "[4]": {"settings": "conventional brimonidine formulations"}}, "note": "Where two headings read alike, the source gives them in different places.", "data": [{"compound": "Nc1cc(Cl)c(N=C2NCCN2)c(Cl)c1", "note": "[Apraclondine]", "values": [{"measurement": "α2:α1", "setting": "[1]", "value": 150}]}, {"compound": "Brc1c(NC2=NCCN2)ccc2nccnc12", "note": "[Brimonidine]", "values": [{"measurement": "IOP reduction peaking at (time)", "setting": "[2]", "value": 2, "unit": "h"}, {"measurement": "contralateral (nontreated eye) IOP reduction compared to the treated eye", "setting": "normotensive rabbits", "value": "about 10%"}, {"measurement": "time of peak effect", "setting": "normotensive rabbits", "value": "about 3 hours"}, {"measurement": "substantial local side effects", "setting": "[3]; conjunctival hyperemia, blepharitis, allergy, edema, follicles, foreign body sensation, burning, blurring", "value": "10-25 % of users"}, {"measurement": "time of peak IOP reduction effect after instillation", "setting": "[3]; conventional brimonidine formulations, normotensive eyes", "value": "2 to 3", "unit": "h"}, {"measurement": "duration of IOP reduction effect of a single dose", "setting": "[3]; [4]", "value": "≤ 12", "unit": "h"}, {"measurement": "peak IOP reduction effect in normotensive eyes", "setting": "[3]; [4]", "value": "15-18%"}, {"measurement": "peak IOP reduction in normotensive eyes (less than 21 mm Hg)", "setting": "[3]; human, in vivo", "value": "6-18%"}, {"measurement": "peak IOP reduction in ocular hypertensive eyes", "setting": "[3]; human, in vivo", "value": "20-25%"}, {"measurement": "peak effect within (time of instillation)", "setting": "[3]; human, in vivo", "value": "2 to 3", "unit": "h"}, {"measurement": "topical lid and conjunctival allergy, dryness, and redness", "setting": "[3]; human, in vivo", "value": "over 10 % of patients"}, {"measurement": "users complaining of dryness", "setting": "[3]; human, in vivo", "value": "more than 10%"}, {"measurement": "rebound redness", "setting": "[3]; long term use", "value": "20-25%"}, {"measurement": "equivalent reduction in normotensive human eyes", "setting": "[3]", "value": "about 20%"}, {"measurement": "duration of effect", "setting": "[3]; typically", "value": "less than 12 hours"}]}, {"compound": "Clc1cccc(Cl)c1N=C1NCCN1", "note": "[Clonidine]", "values": [{"measurement": "α2:α1", "setting": "[1]", "value": 200}]}, {"compound": "Cc1cccc([C@H](C)c2cnc[nH]2)c1C", "note": "[Dexmedetomidine]", "values": [{"measurement": "max soluble concentration", "setting": "pH 6", "value": 0.195, "unit": "%"}, {"measurement": "solubility", "setting": "pH 6", "value": 1953, "unit": "µg/mL"}, {"measurement": "max soluble concentration", "setting": "pH 6.4", "value": 0.060, "unit": "%"}, {"measurement": "max soluble concentration", "setting": "pH 7", "value": 0.023, "unit": "%"}, {"measurement": "solubility", "setting": "pH 7", "value": 224, "unit": "µg/mL"}, {"measurement": "max soluble concentration", "setting": "pH 7.4", "value": 0.015, "unit": "%"}, {"measurement": "max soluble concentration", "setting": "pH 8", "value": 0.013, "unit": "%"}, {"measurement": "solubility", "setting": "pH 8", "value": 134, "unit": "µg/mL"}, {"measurement": "pressure reduction in the nontreated (contralateral) eye relative to the treated eye", "setting": "normotensive rabbits; 0.02% in normotensive rabbits, U.S. Pat. No. 5,304,569", "value": 100, "unit": "%"}, {"measurement": "pressure reduction", "setting": "normotensive rabbits; 0.05% in normotensive rabbits, Vartiainen et al", "value": 4.75, "unit": "mm Hg"}, {"measurement": "contralateral (nontreated eye) IOP reduction compared to the treated eye", "setting": "normotensive rabbits", "value": "about 100%"}, {"measurement": "time of peak effect", "setting": "normotensive rabbits", "value": "about 2 hours"}, {"measurement": "more effective than brimonidine by (IOP reduction vs. time)", "setting": "normotensive eyes", "value": "about 200%"}, {"measurement": "start of decrease in hyperemia and increase in whiteness", "setting": "one eye of an individual; after the application", "value": "about 2 minutes"}, {"measurement": "time to maximum whiteness", "setting": "one eye of an individual; after the application", "value": "about 10 minutes"}, {"measurement": "Eye White Shade", "setting": "one eye of an individual; dexmedetomidine 0.010%, 4 (whitest)-1 off-white-gray/yellow", "value": 1}, {"measurement": "Redness", "setting": "one eye of an individual; dexmedetomidine 0.010%, scale 0 (none)-4 (reddest + chemosis)", "value": 1.25}, {"measurement": "Redness", "setting": "one eye of an individual; dexmedetomidine 0.022%, scale 0-4", "value": 1.25}, {"measurement": "Eye White Shade", "setting": "one eye of an individual; dexmedetomidine 0.022%, scale 4-1", "value": 1.25}, {"measurement": "Redness", "setting": "one eye of an individual; dexmedetomidine 0.050%, scale 0-4", "value": 1.0}, {"measurement": "Eye White Shade", "setting": "one eye of an individual; dexmedetomidine 0.050%, scale 4-1", "value": 1.5}, {"measurement": "Redness", "setting": "one eye of an individual; dexmedetomidine 0.10%, scale 0-4", "value": 0.75}, {"measurement": "Eye White Shade", "setting": "one eye of an individual; dexmedetomidine 0.10%, scale 4-1", "value": 1.75}, {"measurement": "Redness", "setting": "one eye of an individual; dexmedetomidine […], scale 0-4", "value": 1.0}, {"measurement": "Eye White Shade", "setting": "one eye of an individual; dexmedetomidine […], scale 4-1", "value": 1.5}, {"measurement": "total duration of the effect (reduced hyperemia, increase in whiteness)", "setting": "one eye of an individual; in vivo", "value": "3 to 5", "unit": "h"}, {"measurement": "equivalent reduction in normotensive human eyes", "setting": "[3]", "value": "about 20%"}, {"measurement": "α2:α1", "setting": "[1]", "value": 1620}]}, {"compound": "CC(Oc1c(Cl)cccc1Cl)C1=NCCN1", "note": "(stereo not shown) [Lofexidine]", "values": [{"measurement": "α2:α1", "setting": "[1]", "value": "<300"}]}, {"compound": "Cc1cc(C(C)(C)C)c(O)c(C)c1CC1=NCCN1", "note": "[Oxymetazoline]", "values": [{"measurement": "α2:α1", "setting": "[1]", "value": 50}]}, {"compound": "Cc1cccc(C)c1N=C1NCCCS1", "note": "[Xylazine]", "values": [{"measurement": "α2:α1", "setting": "[1]", "value": 160}]}, {"compound": "brimonidine tartrate", "values": [{"measurement": "peak IOP reduction", "setting": "normotensive rabbits; 0.10% solution in normotensive rabbits", "value": "about 6.2 mm Hg"}]}]}
